The values that follow are results of earlier work, collected in patent publication US20120177693A1, “DEEP LUNG PULMONARY DELIVERY OF TREPROSTINIL” (Aradigm Corporation, priority 2008, published 2012).

For the series the following is noted: inhaled; Voswinckel et al.; cited from earlier work.

Turning to `CC#CCC(C)[C@H](O)/C=C/[C@@H]1[C@H]2C/C(=C/CCCC(=O)O)C[C@H]2C[C@H]1O` (some centres unmarked) [iloprost], the Plasma half-life result is listed as “about 8 min” and the “Time of peak plasma levels” value is “immediately after the completion of the inhalation session”.
